Experimental findings from article PMC6790694, “Selective Modification of Ribosomally Synthesized and Post‐Translationally Modified Peptides (RiPPs) through Diels–Alder Cycloadditions on Dehydroalanine Residues” (Chemistry (Weinheim an Der Bergstrasse, Germany), 2019) are described below.

In brackets after ≈: the same amount, converted by molar mass.

The subject of assay [1] is E. faecalis (ATCC29212). Description: MIC assay, broth microdilution, E. faecalis. In kind it is cell-based, Enterococcus faecalis. Conditions: supplement table SI-21; E. faecalis LMG 08222 (ATCC29212); broth microdilution in CAMHB + 3 % v/v lysed horse blood, 37 °C, 20 h; tested three times in triplicates. On the procedure:
(§1) Moreover, variations in activity towards both strains and between the different site‐ and endo/exo isomers remained limited to a factor of 4. The activity of 3 also very closely resembles that of thiostrepton, showing that even removing part of the tail region has little effect on its activity.
(§2) Biological Activity Assays
(§3) Preparation of antimicrobial agents
(§4) Thiostrepton and its variants were dissolved and diluted in DMSO to a concentration of 640 µg/ml, and stored at -20 °C. Before use, they were diluted 20 fold in Mueller Hinton Broth 2 (CAMHB; cation-adjusted, Sigma-Aldrich).
(§5) Dilution of the thiostrepton compounds in CAMHB was done in 50 % volume steps to prevent precipitation.
(§6) Vancomycin for the quality controls was dissolved in MQ to a concentration of 256 mg/ml and stored at -20 °C.
(§7) It was diluted in CAMHB to a final concentration of 256 µg/ml before use.
(§8) Strains and growth conditions
(§9) The MIC values of thiostrepton and its variants were determined for Staphylococcus aureus LMG 10147 […]
(§10) from glycerol stocks on LB (Formedium™) and GM17 (Difco™) plates respectively. […]
(§11) Well 11, lacking the test compound, functions as a growth control and well 12 as a sterility control. […] To ensure MIC data reliability, MIC values for vancomycin were determined for every series of tests performed, as described […]

Assay [2] deals with S. aureus (ATCC29213). The experiment in a line: MIC assay, broth microdilution, S. aureus. It is filed as cell-based, Staphylococcus aureus. As to conditions: supplement table SI-21; S. aureus LMG 10147 (ATCC29213); broth microdilution in CAMHB, 37 °C, 20 h; tested three times in triplicates. The protocol:
as §1, §2, §3, §4, §5, §6, §7, §8, §9, §10, §11

`C=C(NC(=O)C(=C)NC(=O)c1csc(C2=N[C@@H]3c4csc(n4)[C@H]4NC(=O)c5csc(n5)[C@H]([C@](C)(O)[C@@H](C)O)NC(=O)[C@H]5CSC(=N5)/C(=C/C)NC(=O)[C@H]([C@@H](C)O)NC(=O)c5csc(n5)[C@]3(CC2)NC(=O)[C@H](C)NC(=O)C(=C)NC(=O)[C@H](C)NC(=O)[C@H]([C@@H](C)CC)N[C@@H]2C=Cc3c([C@H](C)O)cc(nc3[C@H]2O)C(=O)O[C@@H]4C)n1)C(N)=O` [Thiostrepton, thiostrepton]: in assay [1], the “MIC against E. faecalis (VSE)” value worked out at 0.5 µg/mL. Moreover, the “MIC against S. aureus (MSSA)” value in assay [2] was found to be 0.5 µg/mL (≈ 0.3 µM).
